A short description of series [1]: Cloud point measurement (absorbance at 500 nm as a function of temperature). It counts as physicochemical. The following applies: 1% aqueous solutions. As for the experimental part: Consistent with the standard method for measuring the cloud point of surfactants, the cloud point of each of the above blends was measured at a total concentration of 1% w/w in water using a Perkin Elmer spectrophotometer fitted with a PTP6 temperature controller. The absorbance of the solution at 500 nm wavelength was determined as a function of temperature. The cloud point was recorded as the onset of a rapid increase in absorbance as the solution began to cloud.
Cloud point—the measurements relied on the same method as for ‘Example 1’
Cloud points—were measured using the same method as in Example 1.
(§1) This example provides de-gelling, cloud point and adjuvancy data for dodecyl 23 ethoxylate with n-hexyl cap and hexadecyl 20 ethoxylate with n-hexyl cap Cloud points were measured as described in example 1 for 1% aqueous solutions of the capped and uncapped surfactants both individually and as blends (see Table 30). Degelling temperatures were also measured as outlined in example 1 for 25, 30, 35 and 40% aqueous solutions of the capped and uncapped surfactants both individually and as blends (see Table 31).
(§2) This example provides de-gelling, cloud point and adjuvancy data for oleyl 20 ethoxylate with n-butyl, n-pentyl or benzyl ether caps end capped oleyl 20 ethoxylate. Cloud points were measured as described in example 1 for 1% aqueous solutions of the capped and uncapped surfactants both individually and as blends. Degelling temperatures were also measured as outlined in example 1 for 25, 30, 35 and 40% aqueous solutions o of the capped and uncapped surfactants both individually and as blends.

Series [2] relates to Avena fatua (AVEFA). The series can be described thus: Glasshouse adjuvancy test for pinoxaden on AVEFA. Format: in vivo. The following applies: pinoxaden 15 g ai/ha, total surfactant 0.2% w/v, 21 days. How it is done:
The efficacy of 1:1 blends of oleyl 20EO with oleyl 20EO with either n-hexanoyl, n-octanoyl or 2-ethyl hexanoyl ester caps as adjuvants for the herbicide pinoxaden was tested in a glasshouse against two weed species, sown into standard soil in pots and cultivated under controlled conditions in a glasshouse (20/16° C. day/night; 16 hours light; 65% humidity). Pinoxaden was added to the spray tank as a standard EC (emulsifiable concentrate) formulation. The plants were sprayed with pinoxaden at rates of 7.5 or 15 grams of pesticide per hectare using a laboratory track sprayer which delivered the aqueous spray composition at a rate of 200 litres per hectare, using a flat fan nozzle (Teejet 11002VS) at 2 bar. The spray solutions also contained the oleyl 20EO alone or in the 1:1 blends with the capped surfactants. The adjuvants were added to the spray solution at a total surfactant rate of 0.2% w/v. All spray solutions also contained 10% w/w of iso-propanol. The weed species and their BBCH growth stage at spraying were Avena fatua (AVEFA; growth stage 13) and Setaria viridis (SETVI; growth stage 13). Each spray test was replicated three times. The test plants were then grown in a glasshouse under controlled conditions (20/16° C. day/night; 16 hours light; 65% humidity) and watered twice a day. The efficacy of the herbicide was assessed visually and expressed as a percentage of the leaf area killed. Samples were assessed at a time period of 21 days following application.
Dodecyl 23EO and hexadecyl 20EO were capped with an n-hexyl ether cap. The efficacy of 1:1 blends of these with their uncapped counterparts were tested as adjuvants for the herbicide pinoxaden was tested in a glasshouse against two weed species, sown into standard soil in pots and cultivated under controlled conditions in a glasshouse (20/16° C. day/night; 16 hours light; 65% humidity). Pinoxaden was added to the spray tank as a standard EC (emulsifiable concentrate) formulation. The plants were sprayed with pinoxaden at a.i. rates of 7.5 or 15 grams per hectare using a laboratory track sprayer which delivered the aqueous spray composition at a rate of 200 litres per hectare, using a flat fan nozzle (Teejet 11002VS) at 2 bar. The spray solutions tested included the capped and uncapped alone or in the 1:1 blends with the capped surfactants. The adjuvants were added to the spray solution at a total surfactant rate of 0.2% w/v. All spray solutions also contained 10% w/w of iso-propanol. The weed species and their BBCH growth stage at spraying was Avena fatua (AVEFA; growth stage 12). Each spray test was replicated three times. The test plants were then grown in a glasshouse under controlled conditions (20/16° C. day/night; 16 hours light; 65% humidity) and watered twice a day. The efficacy of the herbicide was assessed visually and expressed as a percentage of the leaf area killed. Samples were assessed at a time period of 21 days following application.
Oleyl 20EO was capped with -butyl, n-pentyl and n-benzyl caps. The efficacy of 1:1 blends of these with their uncapped counterparts were tested as adjuvants for the herbicide pinoxaden was tested in a glasshouse against two weed species, sown into standard soil in pots and cultivated under controlled conditions in a glasshouse (20/16° C. day/night; 16 hours light; 65% humidity). Pinoxaden was added to the spray tank as a standard EC (emulsifiable concentrate) formulation. The plants were sprayed with pinoxaden at a.i. rates of 7.5 or 15 grams per hectare using a laboratory track sprayer which delivered the aqueous spray composition at a rate of 200 litres per hectare, using a flat fan nozzle (Teejet 11002VS) at 2 bar. The spray solutions tested included the capped and uncapped alone or in the 1:1 blends with the capped surfactants. The adjuvants were added to the spray solution at a total surfactant rate of 0.2% w/v. All spray solutions also contained 10% w/w of iso-propanol.

Series [3] can be described thus: De-gelling temperature of aqueous surfactant blends by low shear rheology (Bohlin Gemini rheometer, storage modulus vs temperature). Format: physicochemical. As for the experimental part:
The temperatures at which blends of capped and uncapped surfactants de-gel were determined by standard low shear rheology with a Bohlin™ Gemini rheometer. The storage modulus (G′) at 1 Hz was determined at a strain of 0.001-0.002 in a standard C14 cup and bob geometry over a temperature range of 5-70° C., the exact range depending on the de-gelling point of the sample. Plots of storage modulus versus temperature were constructed and the de-gelling temperature was taken to be the point at which the modulus begins to fall rapidly from its high value in the gelled state (typically ca. 10^5 Pa) down to the final value in the de-gelled state (less than 10 Pa). Blends of surfactants were prepared at from 25 to 40% w/w total surfactant concentration in water. Samples were left in an oven at 55° C. for several days to ensure that the mixtures were homogeneous. Samples were placed in the C14 cup and the samples were de-gelled by raising the temperature in the rheometer, the bob was then inserted and the sample was then cooled at 1° C./min, whilst the storage modulus was regularly recorded during the cooling. Once the final temperature had been reached (i.e. when the sample had gelled), the temperature was then increased again and the modulus again recorded. The de-gelling temperature was determined from the increasing temperature cycle.
Degelling temperatures—the measurements relied on the same method as for ‘Example 1’ but just at 30% w/w total surfactant concentration.
De-gelling temperatures were measured using the same method as in Example 1.
as §1, §2

Setting [4] is: total surfactant concentration 25% w/w, Table 35.
The mark [5] stands for this setting: total surfactant concentration 30% w/w, Table 35.
Where [6] appears, read: total surfactant concentration 35% w/w, Table 35.
Where [7] appears, read: total surfactant concentration 40% w/w, Table 35.
[8] abbreviates: total surfactant concentration 25% w/w, Table 31.
[9] abbreviates: total surfactant concentration 30% w/w, Table 31.
Where [10] appears, read: total surfactant concentration 35% w/w, Table 31.
Setting [11] is: total surfactant concentration 40% w/w, Table 31.

Turning to `CCCCCCCC/C=C\CCCCCCCCOCCOCCOCCOCCOCCOCCOCCOCCOCCOCCOCCOCCOCCOCCOCCOCCOCCOCCOCCOCCOCc1ccccc1` [Oleyl 20EO n-benzyl ether], the Cloud point in series [1] (Table 34) came to 38.7 °C. In series [2] (Example 9, growth stage 12), this compound came in with a Mean control of 89.3%. The De-gelling temperature was <5 °C in series [3] (setting [4]), <5 °C in series [3] (setting [5]), 5 °C in series [3] (setting [6]) and 15.1 °C in series [3] (setting [7]).

As to Dodecyl 23EO n-hexyl ether, the Cloud point in series [1] (Table 30) is 67.2 °C. For the same compound, the Mean control in series [2] (Example 7, growth stage 12) came out at 86%. The De-gelling temperature in series [3] (setting [8]) was <5 °C; in series [3] (setting [9]), <5 °C; in series [3] (setting [10]), <5 °C; in series [3] (setting [11]), 7.4 °C.

As to Hexadecyl 20EO n-hexyl ether, the Cloud point in series [1] (Table 30) stood at 55.9 °C. In series [2] (Example 7, growth stage 12), this compound had a Mean control of 93.3%. In addition, the De-gelling temperature in series [3] (setting [8]) is <5 °C; in series [3] (setting [9]), <5 °C; in series [3] (setting [10]), 5.7 °C; in series [3] (setting [11]) it was 19.6 °C.

Oleyl 20EO n-pentyl ether: in series [1] (Table 34), the Cloud point worked out at 55.9 °C. In series [2] (Example 9, growth stage 12), this compound had a Mean control of 87.7%. The De-gelling temperature in series [3] (setting [4]) is <5 °C; in series [3] (setting [5]) it was 27.3 °C; in series [3] (setting [6]) it was 34.0 °C; in series [3] (setting [7]) it was 36.1 °C.

dodecyl 23 ethoxylate [Dodecyl 23EO]: the Cloud point in series [1] (Table 30) was >90.0 °C. In addition, the Mean control in series [2] (Example 7, growth stage 12) worked out at 83.3%. The De-gelling temperature in series [3] (setting [8]) stood at 21.1 °C; in series [3] (setting [9]), 38.6 °C; in series [3] (setting [10]), 55.0 °C; in series [3] (setting [11]) it was 64.3 °C.

The record behind these values is patent US11779014B2, “Adjuvants” (SYNGENTA PARTICIPATIONS AG, priority 2017, dated 2023).
